Results taken from PubChem BioAssay AID367 (MTDP, 2006).
Activity calls are given as the source filed them. How the calls were made is not given here.

Target: Gag-Pol polyprotein (Human immunodeficiency virus type 2 subtype A (isolate ROD)) (UniProt P04584)
Assay: Ribonuclease H inhibitors of HIV-2 reverse transcriptase, biochemical dose response (AID 367)
Settings: HIV-2 RNase H, FRET RNA/DNA substrate cleavage

Chain of Gag-Pol polyprotein (Human immunodeficiency virus type 2 subtype A (isolate ROD)) (P04584 whole entry, looked up): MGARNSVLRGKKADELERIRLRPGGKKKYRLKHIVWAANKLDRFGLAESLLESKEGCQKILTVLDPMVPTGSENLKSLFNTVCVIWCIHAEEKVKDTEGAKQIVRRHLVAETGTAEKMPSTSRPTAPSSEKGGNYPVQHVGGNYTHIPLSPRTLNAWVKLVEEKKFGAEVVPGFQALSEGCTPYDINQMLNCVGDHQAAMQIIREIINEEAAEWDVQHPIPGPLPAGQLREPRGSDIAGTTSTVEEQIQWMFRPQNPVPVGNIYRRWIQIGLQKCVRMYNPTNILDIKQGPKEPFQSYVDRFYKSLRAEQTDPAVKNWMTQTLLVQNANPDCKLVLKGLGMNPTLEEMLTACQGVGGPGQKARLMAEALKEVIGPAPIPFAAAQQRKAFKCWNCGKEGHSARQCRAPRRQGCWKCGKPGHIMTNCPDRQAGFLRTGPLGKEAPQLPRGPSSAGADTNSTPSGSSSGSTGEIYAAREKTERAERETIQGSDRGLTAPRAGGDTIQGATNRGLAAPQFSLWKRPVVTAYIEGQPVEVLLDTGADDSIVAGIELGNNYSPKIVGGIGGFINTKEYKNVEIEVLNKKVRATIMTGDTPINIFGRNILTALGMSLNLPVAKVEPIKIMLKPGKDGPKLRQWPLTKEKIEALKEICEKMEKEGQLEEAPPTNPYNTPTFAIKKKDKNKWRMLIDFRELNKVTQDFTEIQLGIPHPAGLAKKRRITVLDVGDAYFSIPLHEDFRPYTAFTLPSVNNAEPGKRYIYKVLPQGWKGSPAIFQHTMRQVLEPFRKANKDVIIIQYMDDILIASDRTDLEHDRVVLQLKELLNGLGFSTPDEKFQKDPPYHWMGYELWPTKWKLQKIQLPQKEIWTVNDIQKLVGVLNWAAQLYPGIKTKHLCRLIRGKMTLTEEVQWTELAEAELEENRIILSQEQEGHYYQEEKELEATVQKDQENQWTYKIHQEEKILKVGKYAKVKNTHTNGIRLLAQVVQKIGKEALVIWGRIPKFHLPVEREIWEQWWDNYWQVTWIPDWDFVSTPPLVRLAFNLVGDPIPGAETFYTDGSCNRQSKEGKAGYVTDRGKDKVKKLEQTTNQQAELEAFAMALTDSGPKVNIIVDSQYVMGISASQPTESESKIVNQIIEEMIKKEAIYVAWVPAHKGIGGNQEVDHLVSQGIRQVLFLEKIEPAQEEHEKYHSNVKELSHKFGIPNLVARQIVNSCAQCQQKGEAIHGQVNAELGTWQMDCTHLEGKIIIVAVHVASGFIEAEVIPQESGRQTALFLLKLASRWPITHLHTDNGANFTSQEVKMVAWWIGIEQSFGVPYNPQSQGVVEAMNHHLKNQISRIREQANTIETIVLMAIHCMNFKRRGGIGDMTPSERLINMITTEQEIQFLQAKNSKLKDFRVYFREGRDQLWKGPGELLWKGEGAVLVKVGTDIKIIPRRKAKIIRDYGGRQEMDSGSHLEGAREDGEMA

Compound | IC50
COc1ccc2oc(=O)c(-c3csc(Nc4ccc(Br)cc4)n3)cc2c1 | 9.8 µM
NC(=O)c1c(NC(=O)CCc2ccccc2)sc2c1CCCCCC2 | 1.7 µM
O=C(O)c1cc(-c2ccc(/C=C3/Sc4ccccc4C3=O)o2)ccc1O | 3.3 µM
NCC[Se][Se]CCN | 2 µM
Nc1ccc(S(=O)(=O)O)c2cccc(O)c12 | inactive
C[C@]12Cc3cnc(-c4ccccc4)nc3C[C@@H]1CC[C@@H]1[C@@H]2CC[C@@]2(C)[C@H]1CC[C@]2(C)O | inactive
COc1ccc(C(=O)NC(=S)Nc2ccc3nn(-c4ccc(C)c(Cl)c4)nc3c2)cc1[N+](=O)[O-] | 4.3 µM
O=C1/C(=C\c2ccc(O)c(O)c2)SC(=S)N1c1cccc(Cl)c1 | 6.6 µM
Cc1ccc(C)n1-c1ccc(Br)cc1C(=O)O | inactive
O=C1C(Cl)=C/C(=N\S(=O)(=O)c2ccccc2)C(Cl)=C1Cl | 0.9 µM
Cc1cc(=O)c2c(O)c3c(O)cc(O)c4c5c(O)cc(O)c6c(O)c7c(=O)cc(C)c8c1c2c(c34)c(c65)c78 | inactive
O=C1NC(=S)N(c2ccccc2F)C(=O)/C1=C/c1ccc(I)o1 | 4.9 µM
O=C1C=CC(=O)c2c(O)cccc21 | 3.1 µM
CC(=O)/C=C/C=C/c1ccc2c(c1)OC(CO)C(c1ccc(O)c(O)c1)O2 (stereo unspecified) | inactive
COc1cccc(-c2nc3cc(NC(=O)/C=C\c4ccccc4)ccc3o2)c1 | 9.2 µM
C=C(CCC(C(=O)O)C1CCC2(C)C3=C(CCC12C)C1(C)CCC(O)C(C)(C)C1CC3)C(C)C (stereo unspecified) | inactive
C=C1C(=O)O[C@@H]2/C=C(\C)CC/C=C(\C(=O)O)CC/C=C(\C)CC[C@H]12 | 5.5 µM
CN1CC(O)C2=CC(=O)C(=O)C=C21 (stereo unspecified) | 4 µM
CN(C)CN1CSC(=S)N(CN(C)C)C1 | 2.8 µM
CCOc1ccc(C2=CC(=O)C=CC2=O)cc1 | 0.7 µM
CC(=O)C1=C(O)[C@@]2(O)C(=O)c3c(c(C)c4ccc(C)c(O)c4c3O)C[C@H]2[C@@H](N)C1=O | 4.4 µM
COc1c(OC)c(O)c2c(=O)cc(-c3ccc(O)c(O)c3)oc2c1OC | 3 µM
N#C/C(=C\Nc1ccc(S(=O)(=O)Nc2nccs2)cc1)c1nc(-c2ccc(Cl)cc2)cs1 | 4.1 µM
O=c1oc2ccccc2c(O)c1/C=C1\C=Nc2ccccc21 | 5 µM
C=C/C(C)=C/C[C@]1(C)[C@H](C)CC[C@@]23C(=C[C@H](OC(=O)c4ccc(O)c(OC)c4)C[C@@H]12)[C@@H](OC(C)=O)O[C@H]3OC(C)=O | inactive
COC([CH2][Hg][n]1cnc2c1c(=O)n(C)c(=O)n2C)CN1C(=O)c2ccccc2S1(=O)=O (stereo unspecified) | 0.9 µM

Compound | IC50
CC(C)c1ccc(O)c(=O)cc1 | inactive
Cc1sc(NC(=O)c2cccc([N+](=O)[O-])c2)c(C(N)=O)c1C | 1.8 µM
COC(=O)c1cc2c3c(ccc2[nH]1)N(C(=O)c1cc2c4c(ccc2[nH]1)N(C(=O)c1cc2c5c(ccc2[nH]1)N(C(N)=O)CC5)CC4)CC3 | 8.1 µM
Cc1ccc(C)n1-c1ccc(O)c(C(=O)O)c1 | 1.6 µM
Cc1cccc(NCC(=O)N/N=C\c2c(Br)cc(Br)c(O)c2Br)c1 | inactive
Oc1cc(CN2COc3ccccc32)c(O)cc1CNC1CCCCC1 | 2.9 µM
Cc1cccc(NC(=O)c2c(NC(=O)c3ccc([N+](=O)[O-])cc3)sc3c2CCCC3)c1 | 2.7 µM
CC(C)=CCC[C@]1(C)[C@@H](CC=C(C)C)C[C@@]2(CC=C(C)C)C(=O)/C(=C(\O)c3ccc(O)c(O)c3)C(=O)[C@]1(CC=C(C)C)C2=O | 4.8 µM
Cc1sc(NC(=O)C2CC3CCC2C3)c(C(N)=O)c1C (stereo unspecified) | inactive
Cc1ccc(NC(=O)c2c(NC(=O)c3ccccc3F)sc3c2CCCCC3)cc1 | 5 µM
Cc1sc(NC(=O)c2ccc(Br)o2)c(C(N)=O)c1C | 7 µM
CC1C2C=CC1C(c1c3ccc(=O)c(O)c-3oc3c(O)c(O)ccc13)C2C(=O)O (stereo unspecified) | 0.5 µM
FC(F)(F)c1nc2ccc(SSc3ccc4nc(C(F)(F)F)[nH]c4c3)cc2[nH]1 | 0.6 µM
Nc1ccc(N=Nc2ccc(-c3ccc(O)cc3)cc2)c2ccc(S(=O)(=O)O)cc12 | 6.3 µM
CC(C)=Cc1cc(CCC/C(C)=C/Cc2c(O)cc(C)c(C(=O)O)c2O)co1 | 5.7 µM
COc1cc(C=O)ccc1OCCCOc1cccc(Oc2ccccc2)c1 | > 100 µM (inactive)
CC(C)c1ccc(O)c(O)c(=O)c1 (tested in a mixture with another compound) | 0.8 µM
C[C@]12CC[C@H]3[C@@H](CCC4=CC(=O)CC[C@@]43C)[C@@H]1CC[C@@H]2C(=O)COS(=O)(=O)c1ccc(Br)cc1 | 7.1 µM
Cc1nn(CC(=O)Nc2sc(C)c(C)c2C(N)=O)c(C)c1[N+](=O)[O-] | 4.3 µM
CCOc1ccc(N2C(=O)/C(=C/c3ccc(I)o3)C(=O)NC2=S)cc1 | 2 µM
O=C(NC(=S)Nc1cc(-c2nc3ccccc3s2)ccc1Cl)c1ccc(F)cc1 | 9.1 µM
O=C1/C(=C/c2ccc(O)c(O)c2)SC(=S)N1C1CCCCC1 | 9.1 µM
Cc1cc(C)c2c(=O)[nH]c(SCC(=O)c3ccc(O)c(O)c3)nc2n1 | 3 µM
c1ccc(C(c2cccc3c2ccc2ccccc23)C(c2ccccc2)c2cccc3c2ccc2ccccc23)cc1 (stereo unspecified) | inactive
Cc1ccc(C(=O)Nc2sc(C)c(C)c2C(N)=O)cc1 | 0.8 µM
O=C(N/N=C/c1ccc(/C=N/NC(=O)c2ccc(O)c(O)c2)cc1)c1ccc(O)c(O)c1 | 3.8 µM

Compound | IC50
Oc1ccc(/C=N/Nc2nncc(-c3ccccc3)n2)c(O)c1O | 1.1 µM
O=C1NC(=O)/C(=C/c2ccc(-c3ccc(O)c(C(=O)O)c3)o2)S1 | 1 µM
C=CC1=C(C)C2=NC1=CC1=NC(=CC3=C(C)C4=C(O)C(C(=O)OC)C(=C5NC(=C2)C(C)C5CCC(=O)OC/C=C(\C)CCCC(C)CCCC(C)CCCC(C)C)C4=N3)C(CC)=C1C (stereo unspecified) | > 100 µM (inactive)
Cc1ccc(-c2n[nH]c(=S)n2/N=C/c2ccc(O)c(O)c2O)cc1 | 3.8 µM
O=[N+]([O-])c1cc(Cc2cc([N+](=O)[O-])c3cccnc3c2O)c(O)c2ncccc12 | 2.8 µM
O=C1C=C(NCCc2cc(Br)c(O)c(Br)c2)C(=O)c2ncccc21 | 1.7 µM
N#Cc1c(NC(=O)C(F)(F)F)sc2c3c(=O)c4ccccc4c(=O)c=3oc3ccccc3c12 | inactive
Cc1ccc(S(=O)(=O)/N=C2\C=CC(=O)C=C2Cl)cc1 | 2.1 µM
COc1ccccc1N=C(NOCc1ccc(Cl)cc1Cl)c1nonc1N | inactive
Cc1ccc(-c2cc(C(=O)Nc3sc(C(=O)OC(C)C)c(C)c3C(N)=O)c3ccccc3n2)s1 | 1.1 µM
CN(C)CS/C(N)=N/C(O)C(Cl)(Cl)Cl (stereo unspecified) | 6 µM
CC1=c2c(oc3cc(O)c(Nc4c(C)cc(O)cc4O)c(C)c23)=CC(=O)C1=Nc1c(C)cc(O)cc1O | 2 µM
O=S(=O)(O)c1cc(N=[N+]([O-])c2cc(S(=O)(=O)O)c3ccccc3c2)cc2ccccc12 | inactive
Cc1cc(C(=O)O)ccc1-n1c(C)ccc1C | inactive
CC(C)c1cccc(O)c(=O)c1 | > 100 µM (inactive)
O=C1NC(=S)N(c2ccccc2F)C(=O)C1=Cc1ccco1 | 2.6 µM
COc1cccc2cc(C(N)=O)c(=O)oc12 | 4.6 µM
O=c1c(O)cccc2cc(O)c(O)c(O)c12 | 1.3 µM
Oc1cc(O)c2cc(O)c(-c3ccc(O)c(O)c3)[o+]c2c1 | 0.8 µM
Cc1sc(NC(=O)c2ccco2)c(C(N)=O)c1C | 5 µM
O=C1c2ccccc2C(=O)c2c(O)c(O)cc(O)c21 | 5 µM
C[C@H]1[C@H](O)c2c(c3c(c4c(-c5ccccc5)cc(=O)oc24)OC(C)(C)C=C3)O[C@@H]1C | inactive
O=C1NC(=S)N(c2cccc(Cl)c2)C(=O)/C1=C\C=C\c1ccco1 | 7 µM
Cc1ccccc1-n1c(O)c(C=C2C=CC=N2)c(=O)[nH]c1=S | inactive
Cc1ccc(C)n1-c1ccc(SCC(=O)O)cc1 | 2 µM
Cc1ccc(-n2c(/C=C/c3ccc(O)c(O)c3)nc3ccccc3c2=O)cc1 | 3.8 µM

Compound | IC50
COc1ccc2c(c1)N(C(=O)CN1C(=O)c3ccccc3C1=O)C(C)(C)c1ssc(=S)c1-2 | 3.7 µM
Cc1sc(NC(=O)C2CCCO2)c(C(N)=O)c1C (stereo unspecified) | 4.3 µM
Nc1c(S(=O)(=O)O)cc(Nc2cccc(S(N)(=O)=O)c2)c2c1C(=O)c1ccccc1C2=O | 4 µM
C=C(C)[C@@H]1CCc2c(O)c(O)c(=O)cc(C)c2C1 | 1.7 µM
O=[N+]([O-])c1ccc2c(N=Nc3ccc4ccccc4c3O)c(O)cc(S(=O)(=O)O)c2c1 | 2.2 µM
O=C(O)C1CCCCC1c1c2ccc(=O)c(O)c-2oc2c(O)c(O)ccc12 (stereo unspecified) | 0.6 µM
Cc1sc2nc(-c3ccc([N+](=O)[O-])cc3)[nH]c(=O)c2c1C | 0.64 µM
O=C(Cc1ccccc1Cl)c1ccc(O)c(O)c1O | 2 µM
Cc1cc(-c2ccco2)c(C#N)c(SCC(=O)c2ccc(O)c(O)c2)n1 | 0.8 µM
O=C1c2ccccc2C(=O)c2c(NC3CCCCC3)ccc(Nc3ccc(S(=O)(=O)O)cc3)c21 | 4.8 µM
O=C(O)/C=C/c1c2ccc(=O)c(O)c-2oc2c(O)c(O)ccc12 | 0.5 µM
O=C1NC(=S)N(c2ccc(Cl)cc2)C(=O)/C1=C/c1ccco1 | inactive
C=CCN1C(=O)/C(=C\c2ccc([N+](=O)[O-])o2)C(=O)NC1=S | inactive
Cc1ccc(S(=O)(=O)/N=C2\C=C(Sc3ncn[nH]3)C(=O)c3ccccc32)cc1 | 2 µM
CCc1c(O)c2c(c(O)c1C(C)=O)C(=O)c1c(cc(O)c(C(=O)O)c1C(=O)O)C2=O | 3.5 µM
NC(=O)c1c(NC(=O)COc2ccccc2)sc2c1CCCCC2 | 8 µM
O=C1O/C(=C(/C(=O)O)c2ccc(O)cc2)C(O)=C1c1cc2c3c(c(O)cc(C4=C(O)/C(=C(\C(=O)O)c5ccc(O)cc5)OC4=O)c3c1)OC2=O | 1.4 µM
Cc1ccc(N2C(=O)/C(=C/c3ccc(O)c(O)c3)SC2=S)cc1C | 4 µM
Cc1c(Cl)ccc2c1NC(C(=O)O)C1CC=CC21 (stereo unspecified) | inactive
CCOc1cccc(N2C(=O)/C(=C/c3cn(CC(=O)OC)c4ccccc34)C(=O)NC2=S)c1 | 2.8 µM
Cc1c(O)c(Br)c(C)c(O)c1Br (tested in a mixture with another compound) | 0.7 µM
Oc1c(Br)cc(/C=N/Nc2nnc3c(n2)[nH]c2ccccc23)c(Br)c1O | 2.3 µM
Cc1ccc(C=C2C(=O)NC(=S)N(c3ccccc3Cl)C2=O)o1 | inactive
